In paper PMC12365235, “Molecular mechanisms of thiazide-like diuretics-mediated inhibition of the human Na-Cl cotransporter” (Nature Communications, 2025):
Changes are numbered by the printed parent chain. “Also recorded” adds a separate entry of the source.

Experiments:
[1] = target: T1, hNCC(C472F) (Homo sapiens, UniProt P55017, C472F); experiment: 125I- uptake assay, hNCC(C472F) variant; type: cell-based
T1 construct: expressed in transfected cells
T1 sequence (P55017 1-1021 C472F): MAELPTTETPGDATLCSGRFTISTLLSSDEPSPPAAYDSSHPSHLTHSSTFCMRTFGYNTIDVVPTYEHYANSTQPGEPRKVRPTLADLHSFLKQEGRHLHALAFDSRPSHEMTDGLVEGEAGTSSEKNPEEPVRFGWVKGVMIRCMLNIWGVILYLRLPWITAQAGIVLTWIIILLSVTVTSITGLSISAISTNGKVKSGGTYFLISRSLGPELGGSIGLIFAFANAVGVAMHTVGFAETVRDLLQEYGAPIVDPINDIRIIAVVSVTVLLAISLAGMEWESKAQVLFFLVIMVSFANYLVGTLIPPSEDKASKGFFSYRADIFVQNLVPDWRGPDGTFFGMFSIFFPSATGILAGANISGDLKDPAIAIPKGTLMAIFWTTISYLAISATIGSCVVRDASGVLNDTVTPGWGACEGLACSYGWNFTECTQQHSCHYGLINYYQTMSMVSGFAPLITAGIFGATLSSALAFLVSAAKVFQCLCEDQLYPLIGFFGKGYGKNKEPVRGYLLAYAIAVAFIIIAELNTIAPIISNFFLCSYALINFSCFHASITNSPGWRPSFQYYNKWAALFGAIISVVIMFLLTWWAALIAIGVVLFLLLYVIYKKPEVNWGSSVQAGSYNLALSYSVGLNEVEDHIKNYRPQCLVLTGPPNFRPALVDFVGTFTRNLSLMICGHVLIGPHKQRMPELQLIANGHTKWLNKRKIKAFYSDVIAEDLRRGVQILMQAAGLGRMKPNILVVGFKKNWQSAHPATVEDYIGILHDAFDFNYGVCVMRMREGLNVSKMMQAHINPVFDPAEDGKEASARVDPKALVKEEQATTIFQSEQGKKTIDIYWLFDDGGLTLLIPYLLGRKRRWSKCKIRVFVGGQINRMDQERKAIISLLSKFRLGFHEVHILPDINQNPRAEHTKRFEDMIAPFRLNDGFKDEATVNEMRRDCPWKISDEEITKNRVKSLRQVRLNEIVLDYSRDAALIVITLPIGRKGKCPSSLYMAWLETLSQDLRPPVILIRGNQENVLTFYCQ
Description: (§1) HEK293S cell lines, cultured in 293 Freestyle medium (Life Technologies; plus 10% fetal bovine serum), stably expressing hNCC and its variants were generated following published protocols. Cells were transfected using Lipofectamine 3000 (Invitrogen) with a pSBbi-RP-based plasmid containing hNCC or its variants and the SB100X vector. Puromycin (2 μg/mL; Gemini Bio-Products) was used for selection of stable cell lines.
(§2) To prepare for the uptake experiment, cells were plated at 0.5 × 10^6 cells/well in 24-well plates one day in advance. To activate NCC, cells were treated with a chloride-free hypotonic solution composed of 67.5 mM sodium-, 2.5 mM potassium-, 0.25 mM magnesium-, and 0.25 mM calcium-gluconate, as well as 7.5 mM HEPES pH 7.4 (buffered using Tris) at 37 °C for 10 min[72]. After the activation step, the experiments were carried out at room temperature. Ten minutes before the start of ^125I^− uptake, 70 μM Bumetanide (Thermo Scientific Chemicals) and 100 μM 4,4′-diisothiocyanatostilbene-2,2′-disulfonic acid (DIDS; Sigma) were added to suppress background iodide uptake activity. Indicated thiazide diuretics were also added to the indicated concentrations 10 min before the start of ^125I^− uptake. The original buffer was switched to an uptake buffer composed of 135 mM Na-gluconate, 5 mM K-gluconate, 1 mM Mg-gluconate, 1 mM Ca-gluconate, 70 μM bumetanide, 100 μM DIDS, 1 mM NaI, 0.25 μCi/ml Na^125I (American Radiolabeled Chemicals, Inc.), and 15 mM HEPES pH 7.4 (buffered using Tris), in the presence or absence of thiazide diuretics to initiate ^125I^− uptake. The ^125I^− uptake process lasted 1 h and was stopped by two rapid washes using ice-cold 110 mM MgCl2. Cells lysed using 1% sodium dodecyl sulfate (SDS) were analyzed by scintillation counting.

[2] = target: T2, hNCC(T352I) (Homo sapiens, UniProt P55017, T352I); experiment: 125I- uptake assay, hNCC(T352I) variant; type: cell-based; conditions: 100 μM polythiazide
T2 construct: expressed in transfected cells
T2 sequence (P55017 1-1021 T352I): T1 sequence (P55017 1-1021 C472F) with T352I, F472C
Description: as §1
as §2, with “The original buffer was switched to an uptake buffer composed of 135 mM Na-gluconate, 5 mM K-gluconate, 1 mM Mg-gluconate, 1 mM Ca-gluconate, 70 μM bumetanide, 100 μM DIDS, 1 mM NaI, 0.25 μCi/ml Na^125I (American Radiolabeled Chemicals, Inc.), and 15 mM HEPES pH 7.4 (buffered using Tris), in the presence or absence of thiazide diuretics to initiate ^125I^− uptake. The ^125I^− uptake process lasted 1 h and was stopped by two rapid washes using ice-cold 110 mM MgCl2.” left out

SMILES: CN1C(CSCC(F)(F)F)Nc2cc(Cl)c(S(N)(=O)=O)cc2S1(=O)=O (stereo not shown) [polythiazide]
- inhibition at 100 µM ([1]; 100 μM polythiazide, C472F, read-out: inhibition of transport activity): ~50%
- decrease in potency relative to hNCC(WT) ([1]; C472F substitution): approximately 200,000 fold
- IC50 ([1]; C472F substitution, estimated from ~50% inhibition at 100 μM): ~100 µM
- inhibition of transport activity [2]: fully inhibited; also recorded: completely inhibited
